According to PubChem BioAssay AID1963420 (Molecular Pharmacology Branch, DTP, NCI, 2024):
pIC50: −log10 of the molar value.

System: 494315-158-R-J1-PDC complex spheroid growth, percent test/control
Assay: Anticancer human tumor 494315-158-R-J1-PDC patient-derived soft tissue sarcoma cell line growth inhibition [Asc]
Conditions: for pIC50: curve of first compound; for viability, T/C: stronger effect = lower value
Experimental: Multicellular complex tumor spheroid response to apoptosis pathway targeting inhibitors Alrizomadlin, Pelcitoclax, and Dasminapant in combination with a variety of drugs and investigational agents in selected tumor cell lines
The MDM2 inhibitor alrizomadlin, the Bcl-2/Bcl-xL inhibitor pelcitoclax, and the IAPs inhibitor dasminapant were evaluated both individually and in combination with standard of care and investigational anticancer small molecules within a complex spheroid model of solid tumors. . Complex spheroids include a stromal component modeled by human endothelial cells (HUVEC) and fibroblasts modeled by human mesenchymal stem cells (MSCs). The concentration ranges selected for each drug and investigational agent were based upon clinically achievable concentrations if the clinical Cmax of the agent was known.
Compounds. The drugs and investigational agents: alrizomadlin (APG-115; NSC831270), pelcitoclax (APG-1252; NSC835773), dasminapant (APG-1387;NSC834197), TAK-243 (NSC785004), copanlisib (NSC809693), olaparib (NSC753686), talazoparib (NSC767125), cobimetinib (NSC 768068), eltanexor (KPT-8602, NSC 794443), abemaciclib (NSC 768073), sotorasib (NSC818433), adagrasib (NSC 831453), MRTX-1133 (NSC 836407), Iadademestat (ORY1001, NSC 806812), and RMC-4630 (NSC839698), were obtained from the NCI Developmental Therapeutics Program Chemical Repository. The FDA-approved anticancer drug set is available from the Developmental Therapeutics Program at https://dtp.cancer.gov/organization/dscb/obtaining/available plates.htm. […] The stock solutions were prepared in dimethyl sulfoxide (DMSO, Sigma-Aldrich, St. Louis, MO, cat. D2650) at 800-fold the tested concentration and stored at -70 degrees C prior to their use. All drugs and investigational agents were tested over a range starting from a high concentration at or near the clinical Cmax and decreasing in half-log increments. If the clinical Cmax for an agent had not been determined, the highest concentration tested was 10 microM.
The patient-derived cancer (PDC) cell lines include five colon adenocarcinomas: 186277-243-T-J2-PDC, 616215-338-R-J1-PDC, 439559-082-T-J2-PDC, 463943-066-T-J2-PDC, and 519858-162-T-J1-PDC; three pancreatic carcinomas: 323965-272-R-J2-PDC, 521955-158-R6-J3-PDC, and 521955-158-R2-J5-PDC; two uterine sarcomas: 327498-152-R-J2-PDC and 993429-296-R-J1-PDC; two rhabdomyosarcomas: 755483-174-R-J1-PDC and 772245-204-R-J1-PDC; two soft tissue sarcomas: 126254-015-R-J1-PDC and 494315-158-R-J1-PDC; two malignant fibrous histiocytomas: 317291-083-R-J1-PDC and 596521-263-R-J1-PDC; two breast carcinomas: 171881-019-R-J1-PDC and 885512-296-R-J2-PDC; and one ovarian carcinoma: 6556581-035-R-J-PDC were obtained from the NCI PDMR, (https://pdmr.cancer.gov). The established cell lines HSSY-2 synovial sarcoma (RRID:CVCL 8719), SYO-1 synovial sarcoma (RRID:CVCL_7146), MPNST malignant peripheral neural sheath tumor were obtained from the Sloan Kettering Institute. The following established cell lines were purchased from the American Type Culture Collection (ATCC, Manassas, VA), Sor the received from the NCI repository:, PANC-1 pancreatic carcinoma (CRL-1469, RRID:CVCL_0480), OVCAR-5 ovarian carcinoma (RRID:CVCL_1628), OVCAR-8 ovarian carcinoma (RRID:CVCL_1629), , MCF-7 breast carcinoma (CRL-12584, RRID:CVCL_0031), MDA-MB-231 breast carcinoma (CRL-12532, RRID:CVCL_0062), NCI-H1876 small cell lung carcinoma (CRL-5902, RRID:CVCL_1503), NCI-H510A small cell lung carcinoma (HTB-184, RRID:CVCL_1565), NCI-H1417 (CRL-5869, RRID:CVCL_1469), and NCI-H196 small cell lung carcinoma (CRL-5823, RRID:CVCL_1509). Dr. Peter Houghton (Greehey Children's Cancer Research Institute, University of Texas Health Science Center, San Antonio, TX) provided Rh-18 rhabdomyosarcoma (RRID:CVCL_1659). Pooled donor human umbilical vein endothelial cells (HUVEC, Lonza, cat. CC-2519) and human mesenchymal stem cells (hMSC, Lonza, cat. PT-2501) were purchased from Lonza (Walkersville, MD).
Cell Culture. […]

[1] = second compound 0.03 µM, first compound 0.00316 µM
[2] = second compound 0.03 µM, first compound 0.01 µM
[3] = second compound 0.03 µM, first compound 0.0316 µM
[4] = second compound 0.03 µM, first compound 0.1 µM
[5] = second compound 0.03 µM, first compound 0.316 µM
[6] = second compound 0.03 µM, first compound 1 µM
[7] = second compound 0.0949 µM, first compound 0.00316 µM
[8] = second compound 0.0949 µM, first compound 0.01 µM
[9] = second compound 0.0949 µM, first compound 0.0316 µM
[10] = second compound 0.0949 µM, first compound 0.1 µM
[11] = second compound 0.0949 µM, first compound 0.316 µM
[12] = second compound 0.0949 µM, first compound 1 µM
[13] = second compound 0.3 µM, first compound 0.00316 µM
[14] = second compound 0.3 µM, first compound 0.01 µM
[15] = second compound 0.3 µM, first compound 0.0316 µM
[16] = second compound 0.3 µM, first compound 0.1 µM
[17] = second compound 0.3 µM, first compound 0.316 µM
[18] = second compound 0.3 µM, first compound 1 µM
[19] = second compound 0.949 µM, first compound 0.00316 µM
[20] = second compound 0.949 µM, first compound 0.01 µM
[21] = second compound 0.949 µM, first compound 0.0316 µM
[22] = second compound 0.949 µM, first compound 0.1 µM
[23] = second compound 0.949 µM, first compound 0.316 µM
[24] = second compound 0.949 µM, first compound 1 µM
[25] = second compound 3 µM, first compound 0.00316 µM
[26] = second compound 3 µM, first compound 0.01 µM
[27] = second compound 3 µM, first compound 0.0316 µM
[28] = second compound 3 µM, first compound 0.1 µM
[29] = second compound 3 µM, first compound 0.316 µM
[30] = second compound 3 µM, first compound 1 µM
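Also: compound exposure lasted seven days after spheroids formed for three days.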

Compound | pIC50 (second compound 0.03 µM) | pIC50 (second compound 0.0949 µM) | pIC50 (second compound 0.3 µM) | pIC50 (second compound 0.949 µM) | pIC50 (second compound 3 µM) | viability, T/C [1] | viability, T/C [2] | viability, T/C [3] | viability, T/C [4] | viability, T/C [7] | viability, T/C [8] | viability, T/C [9] | viability, T/C [10] | viability, T/C [13] | viability, T/C [14] | viability, T/C [15] | viability, T/C [16] | viability, T/C [19] | viability, T/C [20] | viability, T/C [21] | other results
CCN1CCN(Cc2ccc(Nc3ncc(F)c(-c4cc(F)c5nc(C)n(C(C)C)c5c4)n3)nc2)CC1 + CCN1C(C(=O)NC23CCC(C(=O)O)(CC2)CC3)C(c2cccc(Cl)c2F)C2(C(=O)Nc3cc(Cl)ccc32)C12CCCCC2 | < 6.00 | < 6.00 | < 6.00 | < 6.00 | < 6.00 | 109% | 108% | 94.2% | 112% | 105% | 112% | 121% | 121% | 107% | 104% | 114% | 106% | 111% | 117% | 100% | viability, T/C [5]: 105%; viability, T/C [6]: 97.2%; viability, T/C [11]: 106%; viability, T/C [12]: 103%; viability, T/C [17]: 112%; viability, T/C [18]: 97.2%; viability, T/C [22]: 99.2%; viability, T/C [23]: 97.1%; viability, T/C [24]: 88.3%; viability, T/C [25]: 110%; viability, T/C [26]: 112%; viability, T/C [27]: 89.1%; viability, T/C [28]: 114%; viability, T/C [29]: 100%; viability, T/C [30]: 85%
Cn1ncnc1[C@H]1c2n[nH]c(=O)c3cc(F)cc(c23)N[C@@H]1c1ccc(F)cc1 + CCN1C(C(=O)NC23CCC(C(=O)O)(CC2)CC3)C(c2cccc(Cl)c2F)C2(C(=O)Nc3cc(Cl)ccc32)C12CCCCC2 | < 7.00 | < 7.00 | < 7.00 | < 7.00 | < 7.00 | 86.8% | 78.9% | 76.3% | 57% | 87.1% | 66.3% | 64.6% | 58.2% | 75.5% | 76.2% | 62.9% | 76.3% | 78.4% | 64% | 73.5% | viability, T/C (second compound 0.03 µM, first compound 0.000316 µM): 104%; viability, T/C (second compound 0.03 µM, first compound 0.001 µM): 101%; viability, T/C (second compound 0.0949 µM, first compound 0.000316 µM): 108%; viability, T/C (second compound 0.0949 µM, first compound 0.001 µM): 93.4%; viability, T/C (second compound 0.3 µM, first compound 0.000316 µM): 81.8%; viability, T/C (second compound 0.3 µM, first compound 0.001 µM): 94.3%; viability, T/C (second compound 0.949 µM, first compound 0.000316 µM): 95.3%; viability, T/C (second compound 0.949 µM, first compound 0.001 µM): 80.1%; viability, T/C [22]: 72.1%; viability, T/C (second compound 3 µM, first compound 0.000316 µM): 105%; viability, T/C (second compound 3 µM, first compound 0.001 µM): 92.3%; viability, T/C [25]: 67.9%; viability, T/C [26]: 70.9%; viability, T/C [27]: 54.7%; viability, T/C [28]: 74.2%
O=C(c1ccc(F)c(F)c1Nc1ccc(I)cc1F)N1CC(O)([C@@H]2CCCCN2)C1 + CCN1C(C(=O)NC23CCC(C(=O)O)(CC2)CC3)C(c2cccc(Cl)c2F)C2(C(=O)Nc3cc(Cl)ccc32)C12CCCCC2 | < 6.00 | < 6.00 | < 6.00 | < 6.00 | 6.10 | 110% | 116% | 121% | 115% | 98% | 90.5% | 110% | 99.2% | 98.9% | 114% | 120% | 111% | 88.4% | 93.7% | 137% | viability, T/C [5]: 95.7%; viability, T/C [6]: 61.7%; viability, T/C [11]: 96.6%; viability, T/C [12]: 58.4%; viability, T/C [17]: 87.8%; viability, T/C [18]: 51.2%; viability, T/C [22]: 127%; viability, T/C [23]: 97.7%; viability, T/C [24]: 61.3%; viability, T/C [25]: 98.2%; viability, T/C [26]: 102%; viability, T/C [27]: 101%; viability, T/C [28]: 112%; viability, T/C [29]: 84.5%; viability, T/C [30]: 41.4%
